Reference: PMC10387993, “New pyrimidine-N-β-D-glucosides: synthesis, biological evaluation, and molecular docking investigations” (Turkish Journal of Chemistry, 2023)
≈ marks a conversion by molar mass, not a printed value. Where two headings read alike, the source gives them in different places.

How the values were obtained:
Format in all cases: cell-based
A549 = test: cells; conditions: Homo sapiens
Description: (§1) The cell lines were cultured in a cell medium (Dulbecco’s modified eagle’s or RPMI 1640) enriched with 10% (v/v) fetal bovine serum and 2% (v/v) Penicillin-Streptomycin (10,000 U/mL). First, old medium was removed out of the flask when the cells reached approximately 80% confluence. Next, cells were taken from the flasks surface using trypsin-EDTA solution and then subjected to centrifugation. Following, the cell pellet was suspended with fresh media and was inoculated into wells.
(§2) A cell suspension containing approximately 1 × 10^4 cells in 100 μL was seeded into the wells of 96-well culture plates. […]. The final volume of the wells was set to 200 μL by medium. Cell proliferation assay was evaluated by MTT (yellow tetrazolium MTT (3-(4,5-dimethylthiazolyl-2)-2,5-diphenyltetrazolium bromide) methods. Briefly, an MTT stock solution (5 mg of MTT/mL of distilled water) was filtered and kept at −20 °C until use. The cells were exposed to an MTT reagent (consisting of one parts of MTT stock solutions and nine parts of fresh RPMI 1640 without phenol red) for 4 h to form MTT formazan dye followed by the dye dissolved in DMSO with Sorenson’s buffer for 30 min at room temperature and then the plate was measured at 560 nm, with 690 nm as a reference interval, using a microplate reader. Each experiment was repeated at least three times for each cell line.
(§3) IC50 value is a concentration that inhibits half of the cells in vitro. The half maximal inhibitory concentration (IC50) of the test and control compounds was calculated using XLfit5 or excel spreadsheet and represent in μM at 95% confidence intervals. The proliferation assay results were expressed as the percent inhibition according to the following formula: % Inhibition = [1 - (Absorbance of Treatments /Absorbance of DMSO) × 100]. Three dose response parameters (GI50, TGI, LC50) were calculated according to the following formulas using the absorbance measurements of time zero (Tz), control growth (C), and test growth in the presence of drug (Ti). Growth inhibition of 50% (GI50) was calculated from [(Ti-Tz)/(C-Tz)] × 100 = 50, which is the drug concentration resulting in a 50% reduction in the net growth increase in control cells during the drug incubation. The drug concentration resulting in total growth inhibition (TGI) was calculated from Ti = Tz. The LC50 indicating a net loss of cells following treatment was calculated from [(Ti-Tz)/Tz] × 100 = −50.

Hep3B = test: cells; conditions: Homo sapiens
Description: as §1, §2, §3

HT29 = test: cells; conditions: Homo sapiens
Description: as §1, §2, §3

MCF7 = test: cells; conditions: Homo sapiens
Description: as §1, §2, §3

C6 (Rat brain glioma) = test: cells; conditions: Rattus norvegicus
Description: as §1, §2, §3

HeLa = test: cells; conditions: Homo sapiens
Description: as §1, §2, §3

[1] = test system: A. actinomycetemcomitans ATCC 33384; test: Microdilution MIC assay; conditions: Aggregatibacter actinomycetemcomitans, ATCC33384; A. actinomycetemcomitans ATCC 33384, 24 h at 35 °C
Description: (§4) MIC values of the compounds against bacterial strains were determined on the basis of a microwell dilution method. […] […]. Growth of microorganisms was determined visually after incubation for 24 h at 35 °C. The lowest concentration at which there was no visible growth (turbidity) was taken as the MIC.

[2] = test system: S. aureus MSSA ATCC 29213; test: Microdilution MIC assay; conditions: S. aureus MSSA ATCC 29213, 24 h at 35 °C
Description: as §4

E. coli ATCC 25922 = test: Microdilution MIC assay; conditions: Escherichia coli, ATCC25922; E. coli ATCC 25922, 24 h at 35 °C
Description: as §4

[3] = test system: E. faecalis VRE ATCC 19433; test: Microdilution MIC assay; conditions: Enterococcus faecalis; E. faecalis VRE ATCC 19433, 24 h at 35 °C
Description: as §4

[4] = test system: P. aeruginosa AGME ATCC 27853; test: Microdilution MIC assay; conditions: Pseudomonas aeruginosa, ATCC27853; P. aeruginosa AGME ATCC 27853, 24 h at 35 °C
Description: as §4

S. mutans ATCC 35668 = test: Microdilution MIC assay; conditions: Streptococcus mutans, ATCC35668, 24 h, S. mutans ATCC 35668, 24 h at 35 °C; read-out: MIC
Description: as §4

E. coli ESBL ATCC 35218 = test: Microdilution MIC assay; conditions: Escherichia coli, ATCC35218; E. coli ESBL ATCC 35218, 24 h at 35 °C
Description: as §4

[5] = test system: S. aureus MRSA ATCC 46300; test: Microdilution MIC assay; conditions: Staphylococcus aureus; S. aureus MRSA ATCC 46300, 24 h at 35 °C; read-out: MIC
Description: as §4

S. gordonii NCTC 7870 = test: Microdilution MIC assay; conditions: Streptococcus gordonii, NCTC7870; S. gordonii NCTC 7870, 24 h at 35 °C
Description: as §4

[6] = LDH cytotoxic activity assay, C6; conditions: rat, C6 glioma cells
Description: as §1
Approximately 5 × 10^3 cells in 100 μL were placed into 96-well plates as triplicates and treated with 25, 50, 75, and 100 μg/mL concentrations of test compounds at 37 °C with 5% CO2 for 24 h. LDH activity was obtained by determining absorbance at 492–630 nm using a microplate reader.

## CC(=O)OC[C@H]1O[C@@H](Nc2nc(-c3cccnc3)cc(-c3ccccc3C)n2)[C@H](OC(C)=O)[C@@H](OC(C)=O)[C@@H]1OC(C)=O [Compound 11, 2,3,4,6-tetra-O-acetyl-N-[4-(2-methylphenyl)-6-pyridin-3-ylpyrimidin-2-yl]-β-D-glucopyranosylamine]
A549; A549, read-out: LC50
  LC50 (concentration causing 50% net cell loss): > 500 µg/mL
A549; A549, MTT
  GI50: > 500 µg/mL
A549; A549, MTT, read-out: IC50
  IC50: > 500 µg/mL
A549; A549, MTT, read-out: TGI
  IC (total growth inhibition): > 500 µg/mL
Hep3B; MTT
  GI50: 4.25 µg/mL (≈ 7.17 µM)
Hep3B; MTT, read-out: IC50
  IC50: > 500 µg/mL
Hep3B; MTT, read-out: TGI
  IC (total growth inhibition): > 500 µg/mL
Hep3B; read-out: LC50
  LC50 (concentration causing 50% net cell loss relative to time zero): > 500 µg/mL
HT29; HT-29, read-out: LC50
  LC50 (concentration giving 50% net cell loss relative to time zero): > 500 µg/mL
HT29; HT-29, HT29, MTT
  GI50: 2.75 µg/mL (≈ 4.64 µM)
HT29; HT-29, HT29, MTT, read-out: IC50
  IC50: > 500 µg/mL
HT29; HT-29, HT29, MTT, read-out: TGI
  IC (total growth inhibition): > 500 µg/mL
MCF7; MCF7, read-out: LC50
  LC50 (concentration causing 50% net cell loss relative to time zero): > 500 µg/mL
MCF7; MCF7, MTT
  GI50: 4.46 µg/mL (≈ 7.53 µM)
MCF7; MCF7, MTT, read-out: IC50
  IC50: > 500 µg/mL
MCF7; MCF7, MTT, read-out: TGI
  IC (total growth inhibition): > 500 µg/mL
C6 (Rat brain glioma); read-out: LC50
  LC50 (concentration giving 50% net cell loss relative to time zero): 578 µg/mL (≈ 975 µM)
C6 (Rat brain glioma); C6, MTT
  GI50: 2.1 µg/mL (≈ 3.54 µM)
C6 (Rat brain glioma); C6, MTT, read-out: IC50
  IC50: 21.9 µg/mL (≈ 36.9 µM)
C6 (Rat brain glioma); C6, MTT, read-out: TGI
  IC (total growth inhibition): 8.83 µg/mL
HeLa; MTT
  GI50: > 500 µg/mL
HeLa; MTT, read-out: IC50
  IC50: > 500 µg/mL
HeLa; MTT, read-out: TGI
  IC (total growth inhibition): > 500 µg/mL
HeLa; read-out: LC50
  LC50 (concentration causing 50% net cell loss): > 500 µg/mL
[1]
  MIC: > 1000 µg/mL
[2]
  MIC: 125 µg/mL (≈ 211 µM)
[2]; Staphylococcus aureus, 24 h, read-out: MIC
  MIC: 62.5 to 125 µg/mL (≈ 105 to 211 µM)
E. coli ATCC 25922
  MIC: > 1000 µg/mL
[3]
  MIC: > 1000 µg/mL
[4]
  MIC: > 1000 µg/mL
S. mutans ATCC 35668
  MIC: 250 µg/mL (≈ 422 µM)
E. coli ESBL ATCC 35218
  MIC: > 1000 µg/mL
[5]
  MIC: 1000 µg/mL (≈ 1690 µM)
S. gordonii NCTC 7870
  MIC: > 1000 µg/mL
[6]; C6, 25 μg/mL
  cytotoxicity at 24 h, 25 μg/mL: 26.4%
[6]; C6, 50 μg/mL
  cytotoxicity at 24 h, 50 μg/mL: 42.2%
[6]; C6, 75 μg/mL
  cytotoxicity at 24 h, 75 μg/mL: 77%
[6]; C6, 100 μg/mL
  cytotoxicity at 24 h, 100 μg/mL: 84.8%
